Assay: First trials dissolving rivaroxaban into Soluplus polymer
Type: physicochemical
Conditions: total API/Polymer ratio=0.1

maximum amount of rivaroxaban dissolvable into Soluplus: ≤ 10%
SMILES: O=C(NC[C@H]1CN(c2ccc(N3CCOCC3=O)cc2)C(=O)O1)c1ccc(Cl)s1 [rivaroxaban]
